PubChem BioAssay AID588808 (Broad Institute, 2011)
The source made the active and inactive calls.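 The calls were made as follows: active = Aurora B inhibition with potency within ten times the top dose, in every repeat test; inconclusive = repeat tests disagree in their calls; inactive = every repeat test inactive.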

What follows are compounds tested against Aurora kinase B (Homo sapiens) (UniProt Q96GD4) (assay: AURKB enzyme activity inhibitors – biochemical, scintillation, dry powder, set 3, counter-screen for STK33 inhibitor project, dose response (AID 588808)). Conditions: Recombinant Aurora B, 33P-ATP filter-binding scintillation.
Chain of Aurora kinase B (Homo sapiens) (Q96GD4 whole entry, looked up): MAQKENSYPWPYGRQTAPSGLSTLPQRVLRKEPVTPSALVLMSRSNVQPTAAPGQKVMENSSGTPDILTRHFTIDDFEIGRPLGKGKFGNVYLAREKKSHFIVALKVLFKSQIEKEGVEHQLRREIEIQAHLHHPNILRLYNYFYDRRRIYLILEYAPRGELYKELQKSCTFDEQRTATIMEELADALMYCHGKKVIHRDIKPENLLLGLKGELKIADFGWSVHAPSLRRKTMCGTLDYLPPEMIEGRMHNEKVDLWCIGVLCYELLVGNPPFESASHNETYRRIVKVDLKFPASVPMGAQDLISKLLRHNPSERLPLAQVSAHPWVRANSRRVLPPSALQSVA

AC50	Structure (SMILES)
7.79 µM	CC(C)c1ccc(NC(=O)c2cccs2)c(-c2nc3ccccc3[nH]c2=O)c1

Same assay, conditions: Recombinant Aurora B, 33P-ATP filter-binding scintillation; at 10 µM (top of the series)

Structure (SMILES)	activity change, negative = inhibition
COc1ccc(C(=O)Nc2ccccc2-c2nc3ccccc3[nH]c2=O)cc1	inactive
COc1ccc(NC(=O)c2cccs2)c(-c2nc3ccccc3[nH]c2=O)c1	inactive
O=C(Nc1ccc(OC(F)(F)F)cc1-c1nc2ccccc2[nH]c1=O)c1cccs1	inactive
O=C(Nc1ccccc1-c1nc2ccccc2[nH]c1=O)c1cccnc1	inactive
O=C(Nc1ccccc1-c1nc2ccccc2[nH]c1=O)c1cccc(Cl)c1	inactive
O=C(Nc1ccccc1-c1nc2ccccc2[nH]c1=O)c1ccc(F)cc1	inactive
O=C(Nc1ccccc1-c1nc2ccccc2[nH]c1=O)c1ccccn1	inactive

Other lines, results leading:

activity change, negative = inhibition	Structure (SMILES)
inactive	O=C(Nc1ccc(Cl)cc1-c1nc2ccccc2[nH]c1=O)c1cccs1
inactive	O=C(Nc1ccc(F)cc1-c1nc2ccccc2[nH]c1=O)c1cccs1
inactive	O=C(Nc1cc(F)ccc1-c1nc2ccccc2[nH]c1=O)c1cccs1
inactive	O=C(Nc1cc(Cl)ccc1-c1nc2ccccc2[nH]c1=O)c1cccs1
inactive	O=C(Nc1ccccc1-c1nc2ccccc2[nH]c1=O)c1cccs1
